Marks after values point to notes of the source that are not given here. Square brackets hold non-standard residues; d marks the D form. Ends that are not written are not given here.
Legend:
[1] = system: human pancreatic MiaPaCa cancer cell line; test: Inhibition of 3H-thymidine incorporation into DNA, MiaPaCa cells; assay type: cell-based
Procedure: The ability of peptides of Formula I to inhibit incorporation of [³H]thymidine into DNA of monolayer cultures the small cell lung cancer line H-69 and MiaPaCa cell line is assayed as described by Kern et al. (Cancer Res., 45, 5436 (1985).
1x10⁵ cells are plated with DME media containing 10% fetal calf serum (FCS) on Day 0. After 24 hours media is removed and replaced with DME media without serum and incubated at 37°C for 2 days. Media was then removed and replaced with DME media containing 5% FCS with or without somatostatin analog. Media with peptides was changed daily for 4 days. On day 4, 1 »Ci ³H-thymidine added and incubated an additional 17 hrs. Media is then removed and cells recovered by trypsination. DNA extracted with 1 N perchloric acid and the radioactivity measured.

MiaPaCa cells = test: Growth of MiaPaCa cells measured by cell counts; assay type: cell-based, human
[2] = in vivo; cited from earlier work
GH release = details: relative to somatostatin; cited from earlier work
[3] = system: human mammary cell line MDA-MB-231; details: at 10 »g dose; cited from earlier work

N[C@@H](Cc1ccc(N(CCCl)CCCl)cc1)C(=O)O [Melphalan, 4-[bis{2-chloroethyl}amino]-phenylalanine]
% inhibition of ³H-thymidine incorp. ([1]; Dose 10⁻⁶ M): 20% | % inhibition of ³H-thymidine incorp. ([1]; Dose 10⁻⁷ M): 18% | % Decrease in cell number (MiaPaCa cells; Dose 10⁻⁶ M): 29** % | % Decrease in cell number (MiaPaCa cells; Dose 10⁻⁷ M): 1% | % Decrease in cell number (MiaPaCa cells; Dose 10⁻⁸ M): 1%

C[C@H](N)C(=O)NCC(=O)N[C@H]1CSSC[C@@H](C(=O)O)NC(=O)[C@H](CO)NC(=O)[C@H]([C@@H](C)O)NC(=O)[C@H](Cc2ccccc2)NC(=O)[C@H]([C@@H](C)O)NC(=O)[C@H](CCCCN)NC(=O)[C@H](Cc2c[nH]c3ccccc23)NC(=O)[C@H](Cc2ccccc2)NC(=O)[C@H](Cc2ccccc2)NC(=O)[C@H](CC(N)=O)NC(=O)[C@H](CCCCN)NC1=O [SS-14]
half-life in circulation [2]: about 3 min

D-Phe-Cys-Tyr-D-Trp-Lys-Val-Cys-Thr-NH₂
times more potent than somatostatin in test for inhibition of GH release (GH release): more than 100 times

[dF]CY[dW]KVCW-NH2 (cysteine pairing not given here)
times more potent than somatostatin in test for inhibition of GH release (GH release): more than 100 times

pGlu-His-Trp-Ser-Tyr-D-Lys[Ahx-A₂bu(SAL)₂(Cu)]-Leu-Arg-Pro-Gly-NH₂
inhibits the [³H]thymidine incorporation into DNA [3]: 87%
